# Columns and labels:
# Format in all cases: functional
# Enterococcus faecium [1] = experiment: Antibacterial activity against Enterococcus faecium ATCC 49452 at 0 % serum
# Enterococcus faecium [2] = experiment: Antibacterial activity against Enterococcus faecium ATCC 49452 at 10 % serum; conditions: ATCC 49452, Serum
# Enterococcus faecalis [3] = experiment: Antibacterial activity against Enterococcus faecalis ATCC 6569 at 0 % serum
# Enterococcus faecalis [4] = experiment: Antibacterial activity against Enterococcus faecalis ATCC 6569 at 10 % serum; conditions: ATCC 6569, Serum
# Staphylococcus aureus [5] = experiment: Antibacterial activity against methicillin-resistant staphylococcus aureus ATCC 43300 at 10 % serum
# Staphylococcus aureus [6] = experiment: Antibacterial activity against methicillin susceptible staphylococcus aureus ATCC 29213 at 0 % serum
# Staphylococcus aureus [7] = experiment: Antibacterial activity against methicillin susceptible staphylococcus aureus ATCC 29213 at 10 % serum
# Staphylococcus aureus [8] = experiment: Antibacterial activity against methicillin-resistant staphylococcus aureus ATCC 43300 at 0 % serum
Structure (SMILES),MIC (Enterococcus faecium [1]),MIC (Enterococcus faecium [2]),MIC (Enterococcus faecalis [3]),MIC (Enterococcus faecalis [4]),MIC (Staphylococcus aureus [5]),MIC (Staphylococcus aureus [6]),MIC (Staphylococcus aureus [7]),MIC (Staphylococcus aureus [8])
CCCCCCCCCC(=O)N[C@@H](Cc1c[nH]c2ccccc12)C(=O)N[C@H](CC(N)=O)C(=O)N[C@@H](CCO)C(=O)N[C@@H]1C(=O)NCC(=O)N[C@@H](CCCNCc2ccc(C(=O)N3CCN(Cc4ccccc4)CC3)cc2)C(=O)N[C@@H](CC(=O)O)C(=O)N[C@H](C)C(=O)N[C@@H](CC(=O)O)C(=O)NCC(=O)N[C@H](CO)C(=O)N[C@@H]([C@H](C)CC(=O)O)C(=O)N[C@@H](CC(=O)c2ccccc2N)C(=O)O[C@@H]1C,3.13 µg/mL,6.25 µg/mL,6.25 µg/mL,6.25 µg/mL,0.39 µg/mL,0.78 µg/mL,0.78 µg/mL,0.39 µg/mL
CCCCCCCCCC(=O)N[C@@H](Cc1c[nH]c2ccccc12)C(=O)N[C@H](CC(N)=O)C(=O)N[C@@H](CCO)C(=O)N[C@@H]1C(=O)NCC(=O)N[C@@H](CCCNCc2ccc(/C=C/C(=O)N3CCN(c4ccc(F)cc4)CC3)cc2)C(=O)N[C@@H](CC(=O)O)C(=O)N[C@H](C)C(=O)N[C@@H](CC(=O)O)C(=O)NCC(=O)N[C@H](CO)C(=O)N[C@@H]([C@H](C)CC(=O)O)C(=O)N[C@@H](CC(=O)c2ccccc2N)C(=O)O[C@@H]1C,3.13 µg/mL,12.5 µg/mL,1.56 µg/mL,12.5 µg/mL,3.13 µg/mL,0.39 µg/mL,6.25 µg/mL,0.78 µg/mL
CCCCCCCCCC(=O)N[C@@H](Cc1c[nH]c2ccccc12)C(=O)N[C@H](CC(N)=O)C(=O)N[C@@H](CCO)C(=O)N[C@@H]1C(=O)NCC(=O)N[C@@H](CCCNCc2ccc3ccccc3n2)C(=O)N[C@@H](CC(=O)O)C(=O)N[C@H](C)C(=O)N[C@@H](CC(=O)O)C(=O)NCC(=O)N[C@H](CO)C(=O)N[C@@H]([C@H](C)CC(=O)O)C(=O)N[C@@H](CC(=O)c2ccccc2N)C(=O)O[C@@H]1C,6.25 µg/mL,25 µg/mL,6.25 µg/mL,12.5 µg/mL,0.78 µg/mL,0.78 µg/mL,1.56 µg/mL,0.78 µg/mL
CCCCCCCCCC(=O)N[C@@H](Cc1c[nH]c2ccccc12)C(=O)N[C@H](CC(N)=O)C(=O)N[C@@H](CCO)C(=O)N[C@@H]1C(=O)NCC(=O)N[C@@H](CCCNCc2ccccc2N)C(=O)N[C@@H](CC(=O)O)C(=O)N[C@H](C)C(=O)N[C@@H](CC(=O)O)C(=O)NCC(=O)N[C@H](CO)C(=O)N[C@@H]([C@H](C)CC(=O)O)C(=O)N[C@@H](CC(=O)c2ccccc2N)C(=O)O[C@@H]1C,6.25 µg/mL,6.25 µg/mL,6.25 µg/mL,25 µg/mL,1.56 µg/mL,0.78 µg/mL,3.13 µg/mL,0.78 µg/mL
CCCCCCCCCC(=O)N[C@@H](Cc1c[nH]c2ccccc12)C(=O)N[C@H](CC(N)=O)C(=O)N[C@@H](CCO)C(=O)N[C@@H]1C(=O)NCC(=O)N[C@@H](CCCNCc2ccc(S(=O)(=O)NCc3ccc(C(F)(F)F)cc3)cc2)C(=O)N[C@@H](CC(=O)O)C(=O)N[C@H](C)C(=O)N[C@@H](CC(=O)O)C(=O)NCC(=O)N[C@H](CO)C(=O)N[C@@H]([C@H](C)CC(=O)O)C(=O)N[C@@H](CC(=O)c2ccccc2N)C(=O)O[C@@H]1C,0.39 µg/mL,6.25 µg/mL,0.78 µg/mL,6.25 µg/mL,0.78 µg/mL,0.78 µg/mL,3.13 µg/mL,0.39 µg/mL
CCCCCCCCCC(=O)N[C@@H](Cc1c[nH]c2ccccc12)C(=O)N[C@H](CC(N)=O)C(=O)N[C@@H](CCO)C(=O)N[C@@H]1C(=O)NCC(=O)N[C@@H](CCCNCc2ccc(S(=O)(=O)NCc3ccc(F)cc3)cc2)C(=O)N[C@@H](CC(=O)O)C(=O)N[C@H](C)C(=O)N[C@@H](CC(=O)O)C(=O)NCC(=O)N[C@H](CO)C(=O)N[C@@H]([C@H](C)CC(=O)O)C(=O)N[C@@H](CC(=O)c2ccccc2N)C(=O)O[C@@H]1C,1.56 µg/mL,6.25 µg/mL,1.56 µg/mL,3.13 µg/mL,0.78 µg/mL,0.39 µg/mL,1.56 µg/mL,0.39 µg/mL
CCCCCCCCCC(=O)N[C@@H](Cc1c[nH]c2ccccc12)C(=O)N[C@H](CC(N)=O)C(=O)N[C@@H](CCO)C(=O)N[C@@H]1C(=O)NCC(=O)N[C@@H](CCCNCc2ccccc2F)C(=O)N[C@@H](CC(=O)O)C(=O)N[C@H](C)C(=O)N[C@@H](CC(=O)O)C(=O)NCC(=O)N[C@H](CO)C(=O)N[C@@H]([C@H](C)CC(=O)O)C(=O)N[C@@H](CC(=O)c2ccccc2N)C(=O)O[C@@H]1C,6.25 µg/mL,12.5 µg/mL,6.25 µg/mL,12.5 µg/mL,0.78 µg/mL,0.78 µg/mL,1.56 µg/mL,0.78 µg/mL
CCCCCCCCCC(=O)N[C@@H](Cc1c[nH]c2ccccc12)C(=O)N[C@H](CC(N)=O)C(=O)N[C@@H](CCO)C(=O)N[C@@H]1C(=O)NCC(=O)N[C@@H](CCCNCc2ccccc2[N+](=O)[O-])C(=O)N[C@@H](CC(=O)O)C(=O)N[C@H](C)C(=O)N[C@@H](CC(=O)O)C(=O)NCC(=O)N[C@H](CO)C(=O)N[C@@H]([C@H](C)CC(=O)O)C(=O)N[C@@H](CC(=O)c2ccccc2N)C(=O)O[C@@H]1C,12.5 µg/mL,25 µg/mL,12.5 µg/mL,25 µg/mL,0.78 µg/mL,0.78 µg/mL,1.56 µg/mL,0.78 µg/mL

# — ChEMBL document CHEMBL1136464, “Array synthesis of novel lipodepsipeptide” (Bioorg Med Chem Lett, 2003)
